Reference: patent US10067143B2, “Ubiquitination assay” (ITI Scotland Limited, priority 2010, dated 2018)

Test system: T1, SCF^Skp2/Cks1
T1 construct: 6His-Skp2-(isoform 1, hu,FL),; GST-Skp1-(hu,FL), 6His-Cul1-; (hu,FL), UT-Rbx1-(hu,FL); 6His-Cks1-(hu,FL); 6His (N); GST (N); made in house
Assay: 'Live' SCF^Skp2/Cks1 (E3) p27 ubiquitination assay, ECL
Assay type: biochemical, human
Conditions: for shows up as inhibitor in R140 kinase inhibitor panel / IC50, E3 (SCF^Skp2/Cks1) assay ECL: 60 minute incubation; for shows up as inhibitor in R140 kinase inhibitor panel / inhibition in E3 assay, panel of 41 inhibitors: final E3 assay conditions; for IC50, E3 (SCF^Skp2/Cks1) assay ECL: 25 nM c-Myc p27, 5 nM E1, 1 μM E2, 25 nM E3 tetramer, 25 nM Cks1, 2 μM Ub, 100 μM ATP; for inhibition in E3 assay, panel of 41 inhibitors: R140 kinase inhibitor panel + PYR-41
Experimental: FIG. 30 (a): ‘Live’ SCF^Skp2/Cks1 Assay—ECL Inhibitor study—PYR-41 (E1 inhibitor).
FIG. 32: ‘Live’ SCF^Skp2/Cks1 Assay—ECL R140 Kinase inhibit or panel. Used 60 minute incubation; 25 nM c-Myc p27; anti-c-Myc capture for p27 (Millipore 05-274, 1/500); 5 nM E1; 1 μM E2 (HA); 25 nM E3 tetramer; 25 nM Cks1; 2 μM Ub; 100 μM ATP; streptavidin sulfo tag (MSD, R32AD-1, 1 μg/ml).
FIG. 34: ‘Live’ SCF^Skp2/Cks1 Assay—ECL follow up IC50s. Used 60 minute incubation; 25 nM c-Myc p27; anti c-Myc capture for p27 (Millipore 05-274, 1/500); 5 nM E1; 1 μM E2 (HA); 25 nM E3 tetramer; 25 nM Cks1; 2 μM Ub; 100 μM ATP; streptavidin sulfo tag (MSD, R32AD-1, 1 μg/ml). Titration of PYR41 (Calbiochem 662105) from 300 μM to 10 nM (control). Titration of Rottlerin, EGCG, AG538 and K252c from 300 μM to 10 nM.
Each of the assays in the p27 ubiquitination cascade (E1, E2 and E3) were tested against the E1 inhibitor PYR-41. No pre-charging of either the E1 or E2 was carried out prior to the introduction of the compound although in the E3 assay, p27 phosphorylation by CDK2/Cyclin E was carried out in the absence of inhibitor.
In order to test the feasibility of screening the E3 assay against a range of inhibitors, the assay was tested against a panel of 41 inhibitors (40 known kinase inhibitors and PYR-41) (FIG. 31). […] Using the same assay conditions, the E3 assay was tested against these inhibitors (FIG. 33).

T1 sequence (Q13309 whole entry, canonical isoform): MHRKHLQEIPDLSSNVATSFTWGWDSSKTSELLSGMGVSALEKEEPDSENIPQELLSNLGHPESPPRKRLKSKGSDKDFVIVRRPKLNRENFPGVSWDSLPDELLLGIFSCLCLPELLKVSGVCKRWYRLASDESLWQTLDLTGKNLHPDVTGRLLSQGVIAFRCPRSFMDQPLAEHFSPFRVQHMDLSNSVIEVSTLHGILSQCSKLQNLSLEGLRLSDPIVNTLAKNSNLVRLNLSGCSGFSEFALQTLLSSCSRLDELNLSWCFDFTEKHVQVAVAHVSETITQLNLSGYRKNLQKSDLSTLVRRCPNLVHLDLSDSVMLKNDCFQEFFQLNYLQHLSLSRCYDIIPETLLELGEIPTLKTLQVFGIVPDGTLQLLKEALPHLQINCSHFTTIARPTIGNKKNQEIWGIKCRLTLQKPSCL
T1 sequence (P63208 1-160 isoform P63208-2, further chain): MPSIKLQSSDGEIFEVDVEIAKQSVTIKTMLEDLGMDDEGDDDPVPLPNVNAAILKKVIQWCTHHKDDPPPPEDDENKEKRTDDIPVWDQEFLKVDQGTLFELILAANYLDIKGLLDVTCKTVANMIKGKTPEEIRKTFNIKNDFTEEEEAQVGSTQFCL
T1 sequence (Q13616 whole entry, further chain, canonical isoform): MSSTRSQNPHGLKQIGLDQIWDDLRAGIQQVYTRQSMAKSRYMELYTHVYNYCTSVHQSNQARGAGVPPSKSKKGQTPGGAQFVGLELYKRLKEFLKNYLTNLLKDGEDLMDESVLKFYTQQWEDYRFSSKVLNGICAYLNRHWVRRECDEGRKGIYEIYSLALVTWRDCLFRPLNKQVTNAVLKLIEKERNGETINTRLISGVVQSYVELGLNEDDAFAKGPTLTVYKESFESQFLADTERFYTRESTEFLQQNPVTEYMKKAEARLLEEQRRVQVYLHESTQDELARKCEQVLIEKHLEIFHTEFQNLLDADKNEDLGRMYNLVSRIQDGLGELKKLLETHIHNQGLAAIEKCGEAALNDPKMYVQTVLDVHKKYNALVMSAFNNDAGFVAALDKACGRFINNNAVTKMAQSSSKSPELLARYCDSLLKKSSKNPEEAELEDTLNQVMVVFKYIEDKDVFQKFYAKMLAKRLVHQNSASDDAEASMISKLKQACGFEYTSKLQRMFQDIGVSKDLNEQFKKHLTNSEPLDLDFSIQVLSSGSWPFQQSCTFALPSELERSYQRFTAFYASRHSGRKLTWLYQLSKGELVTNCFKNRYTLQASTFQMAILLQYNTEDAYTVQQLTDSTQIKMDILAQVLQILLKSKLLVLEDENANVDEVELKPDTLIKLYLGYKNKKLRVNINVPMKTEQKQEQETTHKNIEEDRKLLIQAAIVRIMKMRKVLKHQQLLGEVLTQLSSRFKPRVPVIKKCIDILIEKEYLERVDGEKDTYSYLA
T1 sequence (P62877 whole entry, further chain, canonical isoform): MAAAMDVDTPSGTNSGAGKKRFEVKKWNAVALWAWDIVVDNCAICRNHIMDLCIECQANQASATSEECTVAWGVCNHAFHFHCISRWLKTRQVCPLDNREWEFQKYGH
T1 sequence (P61024 whole entry, further chain, canonical isoform): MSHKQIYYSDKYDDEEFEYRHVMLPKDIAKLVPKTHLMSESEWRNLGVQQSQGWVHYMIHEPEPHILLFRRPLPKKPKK

SMILES | shows up as inhibitor in R140 kinase inhibitor panel | IC50, E3 (SCF^Skp2/Cks1) assay ECL | inhibition in E3 assay, panel of 41 inhibitors
N#C/C(=C\c1ccc(O)c(O)c1)C(=O)c1ccc(O)c(O)c1 [AG538] | show up as inhibitors |  | 
O=C(O[C@@H]1Cc2c(O)cc(O)cc2O[C@@H]1c1cc(O)c(O)c(O)c1)c1cc(O)c(O)c(O)c1 [EGCG] | show up as inhibitors | in the μM range | moderate amounts of inhibition
O=C1NCc2c1c1c3ccccc3[nH]c1c1[nH]c3ccccc3c21 [K252c] | show up as inhibitors | false positive | moderate amounts of inhibition
CCOC(=O)c1ccc(N2NC(=O)/C(=C/c3ccc([N+](=O)[O-])o3)C2=O)cc1 [PYR-41] |  |  | > 80%
CC(=O)c1c(O)c(C)c(O)c(Cc2c(O)c3c(c(C(=O)/C=C/c4ccccc4)c2O)OC(C)(C)C=C3)c1O [Rottlerin] | show up as inhibitors | in the μM range | moderate amounts of inhibition
